According to patent US10906889B2, “Polycyclic inhibitors of cyclin-dependent kinase 7 (CDK7)” (Dana-Farber Cancer Institute, Inc., priority 2013, dated 2021):
pIC50: −log10 of the molar value. Read-outs that look alike come from different tables or passages of the source.

Legend:
Jurkat cells = assay: Cell proliferation (CellTiter-Glo, 72 hour), Jurkat; assay type: cell-based; conditions: Homo sapiens, blood cancer cell line
CDK7 = molecular target: T1, CDK7 (Homo sapiens, UniProt P50613); assay: Adapta kinase assay (Life Technologies), CDK7; assay type: biochemical
T1 construct: purchased Life Technologies (assay service)

[1] = Table 1C, co-factors cyclin H and MNAT1, read-out: CDK7 IC50

T1 sequence (P50613 whole entry): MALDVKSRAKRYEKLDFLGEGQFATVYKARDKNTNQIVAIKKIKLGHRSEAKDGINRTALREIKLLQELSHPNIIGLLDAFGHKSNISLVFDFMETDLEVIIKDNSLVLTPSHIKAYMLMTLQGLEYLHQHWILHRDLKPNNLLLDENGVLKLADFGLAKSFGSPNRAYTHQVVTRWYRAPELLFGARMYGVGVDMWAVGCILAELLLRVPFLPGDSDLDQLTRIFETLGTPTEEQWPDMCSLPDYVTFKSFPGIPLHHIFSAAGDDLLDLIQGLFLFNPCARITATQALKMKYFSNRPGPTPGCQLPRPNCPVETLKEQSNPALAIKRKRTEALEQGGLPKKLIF
T1 sequence (P51946 whole entry partner): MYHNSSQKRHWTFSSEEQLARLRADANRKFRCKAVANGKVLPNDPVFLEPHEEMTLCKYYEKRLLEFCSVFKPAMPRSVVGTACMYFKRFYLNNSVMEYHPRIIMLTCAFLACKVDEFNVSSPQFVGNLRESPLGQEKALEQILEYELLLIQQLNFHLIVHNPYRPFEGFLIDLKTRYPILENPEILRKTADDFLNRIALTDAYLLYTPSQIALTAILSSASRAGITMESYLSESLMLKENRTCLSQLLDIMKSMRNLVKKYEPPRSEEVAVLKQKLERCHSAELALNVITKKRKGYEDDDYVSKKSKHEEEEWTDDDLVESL
T1 sequence (P51948 whole entry partner): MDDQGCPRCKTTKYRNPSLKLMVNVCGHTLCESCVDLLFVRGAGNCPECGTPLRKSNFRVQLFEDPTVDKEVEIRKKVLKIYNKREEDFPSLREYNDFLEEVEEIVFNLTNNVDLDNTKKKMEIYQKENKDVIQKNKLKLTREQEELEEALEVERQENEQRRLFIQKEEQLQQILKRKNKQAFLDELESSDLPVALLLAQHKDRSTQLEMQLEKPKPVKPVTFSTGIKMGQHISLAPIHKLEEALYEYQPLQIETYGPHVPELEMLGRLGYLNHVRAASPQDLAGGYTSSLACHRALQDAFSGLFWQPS

Row | SMILES | pIC50 (Jurkat cells) | pIC50 (CDK7; [1]) | pIC50 (CDK7; Table 2, co-factors cyclin H and MNAT1, read-out: CDK7 (calculated IC50))
1 | CN(C)C/C=C/C(=O)Nc1ccc(C(=O)NC23CCCC(Nc4ncc(Cl)c(-c5c[nH]c6ccccc56)n4)(C2)C3)cc1 [Compound 121, (E)-N-(5-(5-chloro-4-(1H-indol-3-yl)pyrimidin-2-ylamino)bicyclo[3.1.1]heptan-1-yl)-4-(4-(dimethylamino)but-2-enamido)benzamide] | > 6.30 | > 7.00 | –
2 | CN(C)C/C=C/C(=O)Nc1ccc(C(=O)NC2CCC(Nc3ncc(Cl)c(-c4c[nH]c5ccccc45)n3)CC2)cc1 (stereo not shown) [Compound 105] | – | > 7.00 | > 7.00
3 | CN(C/C=C/C(=O)Nc1ccc(C(=O)N[C@H]2CCC[C@@H](Nc3ncc(Cl)c(-c4c[nH]c5ccccc45)n3)C2)cc1)CC(=O)O [Compound 131, 2-(((E)-4-(4-((1S,3R)-3-(5-chloro-4-(1H-indol-3-yl)pyrimidin-2-ylamino)cyclohexylcarbamoyl)phenylamino)-4-oxobut-2-enyl)(methyl)amino)acetic acid] | > 6.30 | > 7.00 | –
4 | CN(C)C/C=C/C(=O)Nc1ccc(C(=O)N[C@H]2CCC[C@@H](Nc3nccc(-c4c[nH]c5ccccc45)n3)C2)cc1 [Compound 132, N-((1S,3R)-3-(4-(1H-indol-3-yl)pyrimidin-2-ylamino)cyclohexyl)-4-((E)-4-(dimethylamino)but-2-enamido)benzamide] | – | < 6.00 | –
5 | C=CC(=O)Nc1ccc(C(=O)N[C@H]2CCC[C@@H](Nc3ncc(Cl)c(-c4c[nH]c5ccccc45)n3)C2)c(N2CCOCC2)c1 [Compound 133, 4-acrylamido-N-((1S,3R)-3-(5-chloro-4-(1H-indol-3-yl)pyrimidin-2-ylamino)cyclohexyl)-2-morpholinobenzamide] | > 6.30 | 6.00 to 7.00 | –
6 | CN(C)C/C=C/C(=O)Nc1cccc(C(=O)NC2CCC(Nc3ncc(Cl)c(-c4c[nH]c5ccccc45)n3)CC2)c1 (stereo not shown) [compound 140] | > 6.30 | > 7.00 | –
7 | CN(C)C/C=C/C(=O)Nc1ccc(CN[C@H]2CCC[C@@H](Nc3ncc(Cl)c(-c4c[nH]c5ccccc45)n3)C2)cc1 [Compound 129, (E)-N-(4-(((1S,3R)-3-(5-chloro-4-(1H-indol-3-yl)pyrimidin-2-ylamino)cyclohexylamino)methyl)phenyl)-4-(dimethylamino)but-2-enamide] | > 6.30 | > 7.00 | –
8 | CN(C)C/C=C/C(=O)Nc1ccc(C(=O)N[C@H]2CCC[C@@H](Nc3ncc(Cl)c(-c4cccnc4)n3)C2)cc1 [Compound 116, N-((1S,3R)-3-(5-chloro-4-(pyridin-3-yl)pyrimidin-2-ylamino)cyclohexyl)-4-((E)-4-(dimethylamino)but-2-enamido)benzamide] | > 6.30 | 6.00 to 7.00 | –
9 | C=CC(=O)Nc1ccc(C(=O)N[C@H]2CCC[C@@H](Nc3ncc(Cl)c(-c4c[nH]c5ccccc45)n3)C2)cc1 [Compound 112, 4-acrylamido-N-((1S,3R)-3-(5-chloro-4-(1H-indol-3-yl)pyrimidin-2-ylamino)cyclohexyl)benzamide] | > 6.30 | > 7.00 | –
10 | CN(C)C/C=C/C(=O)Nc1ccc(C(=O)N[C@H]2C[C@@H](Nc3ncc(Cl)c(-c4c[nH]c5ccccc45)n3)CC(F)(F)C2)cc1 [Compound 139] | 5.30 to 6.30 | < 6.00 | –
11 | C=CC(=O)Nc1ccc(C(=O)N[C@H]2CCC[C@@H](Nc3ncc(Cl)c(-c4cn(C)c5ccccc45)n3)C2)cc1 [Compound 152] | > 6.30 | 6.00 to 7.00 | –
12 | CN(C)C/C=C/C(=O)Nc1ccc(S(=O)(=O)N[C@H]2CCC[C@@H](Nc3ncc(Cl)c(-c4c[nH]c5ccccc45)n3)C2)cc1 [Compound 123, (E)-N-(4-(N-((1S,3R)-3-(5-chloro-4-(1H-indol-3-yl)pyrimidin-2-ylamino)cyclohexyl)sulfamoyl)phenyl)-4-(dimethylamino)but-2-enamide] | > 6.30 | 6.00 to 7.00 | –
13 | C=CC(=O)Nc1ccc(C(=O)N[C@H]2CCC[C@@H](Nc3ncc(Cl)c(-c4c(C)noc4C)n3)C2)cc1 [Compound 145] | > 6.30 | > 6.00 | –
14 | C=CC(=O)Nc1ccc([C@@H](N[C@H]2CCC[C@@H](Nc3ncc(Cl)c(-c4c[nH]c5ccccc45)n3)C2)C(F)(F)F)cc1 [Compound 136, N-(4-((R)-1-((1S,3R)-3-(5-chloro-4-(1H-indol-3-yl)pyrimidin-2-ylamino)cyclohexylamino)-2,2,2-trifluoroethyl)phenyl)acrylamide] | – | < 6.00 | –
15 | CN(C)C/C=C/C(=O)Nc1ccc(CN(C(=O)OC(C)(C)C)[C@H]2CCC[C@@H](Nc3ncc(Cl)c(-c4c[nH]c5ccccc45)n3)C2)cc1 [Compound 127, tert-butyl (1S,3R)-3-(5-chloro-4-(1H-indol-3-yl)pyrimidin-2-ylamino) cyclohexyl(4-((E)-4-(dimethylamino)but-2-enamido)benzyl)carbamate] | 5.30 to 6.30 | 6.00 to 7.00 | –
16 | C=CC(=O)Nc1cccc(C(=O)N[C@H]2CC[C@H](Nc3ncc(Cl)c(-c4c[nH]c5ccccc45)n3)CC2)c1 [Compound 135, 3-acrylamido-N-((trans)-4-(5-chloro-4-(1H-indol-3-yl)pyrimidin-2-ylamino)cyclohexyl)benzamide] | > 6.30 | > 7.00 | –
17 | CN(C)C/C=C/C(=O)Nc1ccc(C(=O)N[C@H]2CCC[C@@H](Nc3ncc(C4CC4)c(-c4c[nH]c5ccccc45)n3)C2)cc1 [Compound 115, N-((1S,3R)-3-(5-cyclopropyl-4-(1H-indol-3-yl)pyrimidin-2-ylamino)cyclohexyl)-4-((E)-4-(dimethylamino)but-2-enamido)benzamide] | > 6.30 | > 7.00 | –
18 | C=CC(=O)Nc1cccc(CO[C@H]2CC[C@H](Nc3ncc(Cl)c(-c4c[nH]c5ccccc45)n3)CC2)c1 [Compound 155, N-(3-((((1R,4R)-4-((5-chloro-4-(1H-indol-3-yl)pyrimidin-2-yl)amino)cyclohexyl)oxy)methyl)phenyl)acrylamide] | – | < 6.00 | –
19 | C=CC(=O)Nc1ccc(C(=O)N[C@H]2CCC[C@@H](Nc3ncc(Cl)c(-c4c(C)[nH]c5ccccc45)n3)C2)cc1 [Compound 153, 4-acrylamido-N-((1S,3R)-3-((5-chloro-4-(2-methyl-1H-indol-3-yl)pyrimidin-2-yl)amino)cyclohexyl)benzamide] | – | > 7.00 | –
20 | CON(C)C/C=C/C(=O)Nc1ccc(C(=O)N[C@H]2CCC[C@@H](Nc3ncc(Cl)c(-c4c[nH]c5ccccc45)n3)C2)cc1 [Compound 160] | – | 6.00 to 7.00 | –

Second part, the compound after the results:

Row | pIC50 (Jurkat cells) | pIC50 (CDK7; [1]) | pIC50 (CDK7; Table 2, co-factors cyclin H and MNAT1, read-out: CDK7 (calculated IC50)) | SMILES
21 | > 6.30 | > 7.00 | – | CN(C)C/C=C/C(=O)Nc1ccc(C(=O)NC2CC(O)CC(Nc3ncc(Cl)c(-c4c[nH]c5ccccc45)n3)C2)cc1 (racemic) [Compound 109, (+/−)-N-(-3-(5-chloro-4-(1H-indol-3-yl)pyrimidin-2-ylamino)-5-hydroxycyclohexyl)-4-((E)-4-(dimethylamino)but-2-enamido)benzamide]
22 | 5.30 to 6.30 | 6.00 to 7.00 | – | CN(C)C/C=C/C(=O)Nc1ccc(C(=O)N[C@@H]2C[C@H](F)C[C@H](Nc3ncc(Cl)c(-c4c[nH]c5ccccc45)n3)C2)cc1 [Compound 120, N-((1S,3R,5R)-3-(5-chloro-4-(1H-indol-3-yl)pyrimidin-2-ylamino)-5-fluorocyclohexyl)-4-((E)-4-(dimethylamino)but-2-enamido)benzamide]
23 | – | > 7.00 | – | C=CC(=O)Nc1ccc(C(=O)N[C@H]2CCC[C@@H](Nc3ncc(Cl)c(-c4n[nH]c5ccccc45)n3)C2)cc1 [Compound 151, 4-acrylamido-N-((1S,3R)-3-((5-chloro-4-(1H-indazol-3-yl)pyrimidin-2-yl)amino)cyclohexyl)benzamide]
24 | 5.30 to 6.30 | 6.00 to 7.00 | – | C=C(C)C(=O)Nc1ccc(C(=O)N[C@H]2CCC[C@@H](Nc3ncc(Cl)c(-c4c[nH]c5ccccc45)n3)C2)cc1 [Compound 113, N-((1S,3R)-3-(5-chloro-4-(1H-indol-3-yl)pyrimidin-2-ylamino)cyclohexyl)-4-methacrylamidobenzamide]
25 | > 6.30 | > 7.00 | – | Cc1nc(C)c(-c2nc(NC3CCCC(NC(=O)c4ccc(NC(=O)/C=C/CN(C)C)cc4)C3)ncc2Cl)s1 (stereo not shown) [Compound 141]
26 | – | > 7.00 | – | CN(C)C/C=C/C(=O)Nc1ccc(C(=O)N[C@H]2CC[C@H](Nc3ncc(Cl)c(-c4c[nH]c5ccccc45)n3)CC2)cc1 [Compound 106]
27 | > 6.30 | > 7.00 | – | CN(C)C/C=C/C(=O)Nc1ccc(C(=O)N[C@H]2CCC[C@@H](Nc3ncc(C#N)c(-c4c[nH]c5ccccc45)n3)C2)cc1 [Compound 117, N-((1S,3R)-3-(5-cyano-4-(1H-indol-3-yl)pyrimidin-2-ylamino)cyclohexyl)-4-((E)-4-(dimethylamino)but-2-enamido)benzamide]
28 | > 6.30 | 6.00 to 7.00 | – | Cc1noc(C)c1-c1nc(N[C@@H]2CCC[C@H](NC(=O)c3ccc(NC(=O)/C=C/CN(C)C)cc3)C2)ncc1Cl [Compound 144]
29 | – | > 7.00 | – | Cc1[nH]c2ccccc2c1-c1nc(N[C@@H]2CCC[C@H](NC(=O)c3ccc(NC(=O)/C=C/CN(C)C)cc3)C2)ncc1Cl [Compound 154, N-((1S,3R)-3-((5-chloro-4-(2-methyl-1H-indol-3-yl)pyrimidin-2-yl)amino)cyclohexyl)-4-((E)-4-(dimethylamino)but-2-enamido)benzamide]
30 | > 6.30 | > 6.00 | – | C=CC(=O)Nc1ccc(C(=O)N[C@H]2CC[C@@H](Nc3ncc(Cl)c(-c4c[nH]c5ccccc45)n3)CC2)cc1 [Compound 147]
31 | – | > 7.00 | – | CN(C)C/C=C/C(=O)Nc1ccc(C(=O)N[C@H]2CCC[C@@H](Nc3ncc(Cl)c(-c4cn(C)c5ccccc45)n3)C2)cc1 [Compound 150]
32 | > 6.30 | > 7.00 | – | CN(C)C/C=C/C(=O)Nc1ccc(C(=O)NC2CC(F)CC(Nc3ncc(Cl)c(-c4c[nH]c5ccccc45)n3)C2)cc1 (racemic) [Compound 119, (+/−)-N-(3-(5-chloro-4-(1H-indol-3-yl)pyrimidin-2-ylamino)-5-fluorocyclohexyl)-4-((E)-4-(dimethylamino)but-2-enamido)benzamide]
